# Measured values reported in publication PMC8594108, “In vitro growth inhibitory activity of Medicines for Malaria Venture pathogen box compounds against Leishmania aethiopica” (BMC Pharmacology & Toxicology, 2021).
# Values joined by “and” are separate entries in the source; they are usually repeats but may differ in a detail not shown here. Equal entries are not always repeated. Where two headings read alike, the source gives them in different places.
# What was measured:
# [1] = test system: L. aethiopica promastigotes; assay: Primary antipromastigote assay (resazurin based); type: cell-based; settings: Leishmania aethiopica, 72 h; for IC50: dose titration 0.03 to 1 μM, average of two independent experiments in triplicate, read-out: IC50 (95% CI) against Leishmania aethiopica promastigotes
# Method: Test compounds were diluted in 96-well microculture plate containing 100 μL complete M199 medium. […] The Parasite density was kept constant at 1 × 10^5 per well. After 68 h of incubation, 10 μL of fluorochrome resazurin solution (Sigma-Aldrich, Co., St. […] The percentage of inhibition (%) was calculated for each concentration using the following formula: Inhibition%=100−Fluorescence in duplicate drug wells-Fluorescence in blank wells/Fluorescence control wells−Fluorescence in blank wells∗100
# [2] = test system: intracellular L. aethiopica amastigotes; assay: Intracellular amastigote assay in mouse peritoneal macrophages; type: cell-based, Leishmania aethiopica; settings: for IC50 / inhibition at 1 µM: Leishmania aethiopica, Peritoneal macrophage, 72 h; for IC50: mouse peritoneal macrophages, read-out: IC50 against intracellular L. aethiopica amastigotes; for inhibition at 1 µM: read-out: percentage of inhibition of intracellular amastigotes
# Method: Intracellular amastigote assay was conducted according to the method described elsewhere with modifications. Approximately 3 × 10^5 peritoneal macrophages were seeded in 24-well plates and allowed to adhere for 12 h at 33 °C in 5% CO2. Adherent cells were infected with late-stage L. aethiopica promastigotes (1:10 ratio) after washing out non-adherent cells twice. Only when > 70% of the macrophages present in the wells were infected was the infection deemed sufficient. The medium was then replaced with a fresh complete medium with or without test compounds and incubated for 72 h at 33 °C and 5% CO2. After 72 h of incubation, slides were washed with prewarmed PBS, fixed with methanol, and stained with Giemsa (10%) for 15 min and observed under 100x oil immersion objective microscope [Olympus]. Amphotericin B and pentamidine were used as reference drugs against test samples.
# The IC50 was determined by counting amastigotes in (50) macrophages in duplicate cultures. In all assays except for haemolytic and THP- 1, test compounds were diluted in a two-fold dose-titration range (0.03 to 1 μM) in triplicate. Parasite burden was calculated using the infection index as shown below. Infection index=Number of infected macrophages/Total macrophage countedxTotal number of amastigotes in infected macrophages/Total infected macrophages counted
# Haemolysis test = type: cell-based, sheep; settings: sheep
# Method: (§1) The mixture was then centrifuged at 1000 g for 10 min. 75 μL of the resulting supernatant were transferred to 96-well plates and the absorbance readings obtained at 540 nm using Victor3 Multilabel Counter (PerkinElmer, Waltham, USA).
# [3] = THP-1 cell cytotoxicity assay (resazurin); type: cell-based; settings: human
# Method: (§2) Approximately 2 × 10^5 THP-1 cell suspension were added to 96-well microplate containing serially diluted 50 μL test compounds. Microplates were then incubated for 68 h at 37 °C in a 5% CO2 air mixture. Cell viability was determined with the resazurin- based fluorescence assay measured after a total incubation time of 72 h. The estimated median cell cytotoxicity (CC50) was calculated for each concentration using the formula: Cell viability%=Fluorescence in duplicate drug wells-Fluorescence blank wells/Fluorescence in control wells−Fluorescence blank wells∗100 The selectivity index of compounds was calculated from the ratio of the CC50 value determined in THP1 cells to the IC50 value determined from the dose-response curves in promastigote and amastigote assay using the following formula. Selectivity indexSI=CC50THP1cells/IC50promastigotes or amstigotes
# [4] = ref NCBI PubChem [29]-[39]; cited from earlier work
# [5] = test system: sheep red blood cells (RBCs); assay: Haemolysis test; type: cell-based; settings: at 25 μM
# Method: as §1
# THP-1 cells = assay: THP-1 cell cytotoxicity assay (resazurin); type: cell-based
# Method: as §2
# L. infantum = test system: L. infantum; design: method as in MMV biological data; settings: ref MMV biological data; cited from earlier work
# MRC-5 cells = test system: MRC-5 cells; design: method as in MMV (MMV PB website); settings: ref MMV (MMV PB website); read-out: IC50 against MRC-5 cells; cited from earlier work
# PMM cells = test system: PMM cells; design: method as in MMV (MMV PB website); settings: ref MMV (MMV PB website); read-out: IC50 against PMM cells; cited from earlier work
# [6] = hit map sheet with colour categories, negative values shown as 0.00, read-out: Percentage of inhibition against Leishmania aethiopica promastigotes
# [7] = hit map sheet without colour categories, negative values kept, read-out: Percentage of inhibition against Leishmania aethiopica promastigotes
# [8] = sheep red blood cells (2% blood suspension), 1.56–25 μM, 2 h, 37 °C, read-out: Cytotoxicity, CC50, Sheep RBC
# [9] = THP-1 cells, 72 h, read-out: Cytotoxicity, CC50, THP-1
SMILES,"inhibition at 1 µM [1, 6] [%]","inhibition at 1 µM [1, 7] [%]",IC50 [2] [nM],IC50 [1] [nM],activities against the intracellular amastigotes (in words) [2],CC50 at 2 h (Haemolysis test; [8]) [nM],"CC50 at 72 h [3, 9] [nM]",R3 H+ bond receiver [4],R6 Polar surface area [4] [A^2],inhibition at 1 µM [2] [%],CC50 at 2 h (Haemolysis test) [nM],CC50 at 72 h [3] [nM],hemolytic activity on sheep RBC [5] [%],CC20 on THP-1 cell line (THP-1 cells; 72 h) [nM],"Cytotoxicity, CC50 (extrapolated IC50), THP-1 (THP-1 cells; 72 h, extrapolated result)",Selectivity index (SI) (THP-1 cells; CC50 THP-1 cells / IC50 promastigotes or amastigotes),IC50 (L. infantum) [nM],IC50 (MRC-5 cells) [nM],IC50 (PMM cells) [nM]
"C[C@@H]1[C@H](O)[C@@H](C)/C=C/C=C/C=C/C=C/C=C/C=C/C=C/[C@H](O[C@@H]2O[C@H](C)[C@@H](O)[C@H](N)[C@@H]2O)C[C@@H]2O[C@](O)(C[C@@H](O)C[C@@H](O)[C@H](O)CC[C@@H](O)C[C@@H](O)CC(=O)O[C@H]1C)C[C@H](O)[C@H]2C(=O)O [Amphotericin B, reference compound]",63,63,277 ± 7.9,–,–,–,–,–,–,–,–,–,–,–,–,–,–,–,–
CN1CCC(NCc2cccc(-c3ccc(S(=O)(=O)NCc4ccccc4)cc3)c2)CC1 [MMV022029],88,88,–,305,low,> 25000,> 25000,5,69.8,–,–,–,–,–,–,–,–,–,–
O=C(Nc1ccc(N2CCNCC2)cc1)c1ccn2ncc(-c3cccc(Cl)c3)c2n1 [MMV022478],98.9,98.9,435 ± 49.2,448,–,> 25000,> 25000,5,74.6,72.4 ± 5.6,–,–,–,–,–,–,–,–,–
O=C(Nc1cccc(Cl)c1)c1cnc(N2CCN(c3ccncc3)CC2)c(Cl)c1 [MMV024406],97.3,97.3,900 ± 65.9,24,low,> 25000,> 25000,5,61.4,55.6 ± 5.5,–,–,–,–,–,–,–,–,–
Cc1cccc(C(=O)Nc2ccnc(N(C)C3CCN(CC(C)C)CC3)c2)c1 [MMV024829],82.4,82.4,411 ± 56.6,356,–,–,–,4,–,69.6 ± 4.1,> 25000,> 25000,–,–,–,–,–,–,–
COc1cncc(-c2cncc(N3CCN(c4ccncc4)CC3)n2)c1 [MMV085071],76.1,76.1,277 ± 37.2,283,–,> 25000,> 25000,7,67.3,80.5 ± 4.2,–,–,–,–,–,–,–,–,–
CN1CCCC1CCO[C@](C)(c1ccccc1)c1ccc(Cl)cc1 (stereo partly drawn) [MMV637229],–,–,–,–,–,–,–,2,–,–,–,–,–,–,–,–,–,–,–
Clc1cccc(C(c2ccc(CN3CCNCC3)cc2)n2ccnc2)c1 (stereo not drawn) [MMV663250],81,81,–,326,–,> 25000,> 25000,3,33.1,–,–,–,–,–,–,–,–,–,–
CN1CCN(CCCOc2ncc(Nc3ncc(-c4ccc(C(F)(F)F)c(F)c4)nc3C(N)=O)cn2)CC1 [MMV687812],72.9,72.9,–,390,–,> 25000,> 25000,13,122,–,–,–,–,–,–,–,–,–,–
"N=C(N)Nc1ccc(-c2ccc(-c3ccc(NC(=N)N)cc3Cl)o2)c(Cl)c1 [MMV688179, 2,5-Bis (2-chloro-4-guanidinophenyl) furan]",80.6,80.6,–,356,–,> 25000,> 25000,3,142,–,–,–,–,–,–,–,–,–,–
CO[C@@H]1CN(c2ccc(C#CC3(O)CN4CCC3CC4)c(Cc3ccccc3)n2)C[C@H]1O (stereo partly drawn) [MMV688415],98.7,–,374 ± 45.4,145,–,> 25000,> 25000,6,–,68.6 ± 6.6,–,–,5.3,25000,–,–,–,–,–
COc1ccc(Oc2ccc([C@@H](C)N(C)c3ncc4c(N)nc(N)nc4n3)cc2)cc1 [MMV690102],95,–,76 ± 18.1,158,–,> 25000,–,9,125,90.7 ± 5.3,–,–,–,–,36500 nM and 36550 nM and 36000 nM,478.4,3,5400,4000
"CCCCCCCCCCCCCCCCOP(=O)([O-])OCC[N+](C)(C)C [Miltefosine, reference compound]",35.3,35.3,–,–,–,–,–,–,–,–,–,–,–,–,–,–,–,–,–
"N=C(N)c1ccc(OCCCCCOc2ccc(C(=N)N)cc2)cc1 [Pentamidine, reference compound]",64.7,64.7,1600 ± 90,1310,–,–,–,–,–,–,–,–,–,–,–,–,–,–,–
